The source of these data is patent publication US10030044B2, “Nucleotides for the treatment of liver cancer” (IDENIX PHARMACEUTICALS LLC, priority 2013, dated 2018).

Each structure is given as a SMILES string. pIC50: −log10 of the molar value.

Data set [1] can be described thus: Mouse liver pharmacokinetics (liver triphosphate levels) following a single oral dose. In kind it is in vivo, mice. The following applies: for Fold change Mouse Liver GemC TP compared to Gemcitabine / Fold change Mouse Liver GemC TP produced compared to GemU TP: single oral dose, calculated from Table 2 data. The protocol: A single oral dose of test compound in PEG 200 (dose volume 5 mL/kg) was administered to C57BL/6 male mice. Five untreated animals were used for the collection of control plasma and liver. Terminal plasma and liver samples were collected from three animals per time point at 1, 2, 4, 12, and 24 hours post dose. Liver specimens were collected from all animals immediately after the incision. Freezing forceps stored in liquid nitrogen were used to freeze the liver before excision. […]
Liver samples were analyzed for corresponding active triphosphate species by LC-MS/MS. Triphosphate levels were assayed by homogenizing (on ice) a known weight of mouse liver with 4× volume of 0.95 M trichloroacetic acid (TCA). Internal standard solution was added to the homogenate followed by neutralization with 20% ammonium hydroxide solution and addition of 500 μL 1% formic acid. The tissue samples were extracted by weak anion exchange solid phase extraction (SPE). Post extraction, the eluates were evaporated under nitrogen, followed by reconstitution before injection onto the LC-MS/MS system. The samples were chromatographed on a Luna NH2 column using a gradient system of ammonium acetate (1 mM to 20 mM and pH 8.0 to pH 10.0) in water and acetonitrile (70:30). The analyte was detected and quantified by tandem mass spectrometry in positive ion mode on an API4000 equipped with a Turbo Ionspray® interface. The calibration range was 10 to 10000 pmol/mL in mouse liver homogenate (50 to 50000 pmol/g of mouse liver).

Data set [2] has as its system HepG2 cell line. The data set is described as follows: In Vitro Inhibition of Hep G2 Hepatocytes (CellTiter-Glo, 72 hr). In kind it is cell-based. The settings on record: HepG2 cells, 72 hr exposure. Here is the method: Cells were grown in RPMI-1640 supplemented with L-glutamine and 10% FBS: HepG2.
96 well plates of HepG2 cell line were seeded with the optimized number of cells per well in a total volume of 50 μL per well. The plates were left overnight. Some wells were seeded with 100 μL of media for media control. The following day, cells were exposed to test compounds. At same time as drug exposure, a CTG assay was conducted on 1st plate for the 0 hr count.
2× stocks of each compound in media were prepared for dosing, as follows:
50 μL of above 2× stocks were added to cells and medium already on plate to give final concentrations. 50 μL media were added to cell control wells, and 50 μL of mix added to vehicle control wells. 10 μM Dox was added to appropriate wells. Cells exposed to test compounds were incubated at 37° C. for 72 hr followed by a CTG assay.
At the end of the 72 hr exposure period, plates were removed for a CellTiter-Glo (CTG) assay from a 37° C., 5% CO2 incubator and placed on the bench at room temperature for 30 mins. 100 μL of CellTiter-Glo reagent was added and mixed for 2 mins, followed by a further 10 min incubation at room temperature. Luminescence was recorded using Synergy 4.0.

For the compound `C[C@H](NP(=O)(OC[C@H]1O[C@@H](n2ccc(N)nc2=O)C(F)(F)[C@@H]1O)Oc1ccccc1)C(=O)OCc1ccccc1` (single isomer, unassigned) [drawing 127], in data set [1] (listed as drawing 130), the “Fold change Mouse Liver GemC TP compared to Gemcitabine” value is listed as “++++ (25 < ++++ ≤ 50)” and the “Fold change Mouse Liver GemC TP produced compared to GemU TP” value (shortened to “Fold change Mouse Liver GemC TP produced”) was “+++ (10 < +++ ≤ 25)”.
The term pIC50 denotes −log10 of the IC50, conventionally taken in molar units. In the case of `C[C@H](NP(=O)(OC[C@H]1O[C@@H](n2ccc(N)nc2=O)C(F)(F)[C@@H]1O)Oc1ccccc1)C(=O)OCc1ccccc1` (single isomer, unassigned) [drawing 124], in data set [1] (listed as drawing 131), the “Fold change Mouse Liver GemC TP compared to Gemcitabine” value is recorded as “+ (+ ≤ 5)” and the “Fold change Mouse Liver GemC TP produced” value is listed as “+ (+ ≤ 5)”. Also, the pIC50 in data set [2] (Homo sapiens) is 5.00 to 6.00.
As to `CC(C)OC(=O)[C@@H](C)NP(=O)(OC[C@H]1O[C@@H](n2ccc(N)nc2=O)C(F)(F)[C@@H]1O)Oc1ccccc1` (single isomer, unassigned) [Compound 4, Diastereomer 1], the Clast result in data set [1] (analyte GemU TP in mouse liver, single oral dose 182 mg/kg in PEG 200, 182 mg/kg) is listed as “+++ (5,000 < +++ ≤ 15,000)”. For the same compound, in data set [1], the “Fold change Mouse Liver GemC TP compared to Gemcitabine” value is listed as “++++++ (100 < ++++++)” and the “Fold change Mouse Liver GemC TP produced” value is “++++ (25 < ++++ ≤ 50)”. Moreover, the pIC50 in data set [2] (Homo sapiens) is < 5.00.
Take `CC(C)OC(=O)[C@@H](C)NP(=O)(OC[C@H]1O[C@@H](n2ccc(N)nc2=O)C(F)(F)[C@@H]1O)Oc1ccccc1` (single isomer, unassigned) [Compound 4, Diastereomer 2]: in data set [1], the “Fold change Mouse Liver GemC TP compared to Gemcitabine” value is given as “++ (5 < ++ ≤ 10)” and the “Fold change Mouse Liver GemC TP produced” value is “+++ (10 < +++ ≤ 25)”. Besides, the pIC50 in data set [2] is < 5.00.
In the case of `Nc1ccn([C@@H]2O[C@H](CO)[C@@H](O)C2(F)F)c(=O)n1` [drawing 125], in data set [2] (Homo sapiens), the pIC50 was ≥ 8.00.
As for `Nc1ccn([C@@H]2O[C@H](CO)[C@@H](O)C2(F)F)c(=O)n1` [Gemcitabine, gemcitabine], the “Fold change Mouse Liver GemC TP produced” value in data set [1] is reported as “+ (+ ≤ 5)”.
